Test systems include ACHN renal; HCC-2998 colon; HOP-62 NSCLC; HT29 colon; LOX IMVI melanoma; MDA-MB-435; NCI-H522 lung; OVCAR-4 ovarian; RXF 393 renal; TK-10 renal.
Holding throughout (assay): DTP human tumour cell line panel, 48 h

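96-well plates; 48 h exposure; 5 concentrations. Endpoints by linear interpolation between flanking doses. Not reached: highest tested concentration assigned. GI50 is the concentration that inhibits growth by half. TGI: concentration producing complete growth inhibition.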

Data on 7 molecules can be found in PubChem BioAssay (NCI).

What is called GI50 is the concentration that inhibits growth by half. In general, TGI refers to the concentration giving total growth inhibition. Higher therefore signals lower sensitivity of the cells. For `CN(C)C(=O)[C@H](O)[C@H](Cc1ccccc1)NC(=O)c1cc2cc(Cl)ccc2[nH]1`, the GI50 in the test with ACHN renal is 22.2 µM; in the test with HCC-2998 colon it was 16.3 µM; in the test on HOP-62 NSCLC, 22.6 µM; in the test with HT29 colon it was 20.3 µM; in the test on LOX IMVI melanoma, 17 µM; with MDA-MB-435, 22.9 µM. Besides, the GI50 was 21.5 µM in the test with NCI-H522 lung, 25.8 µM in the test on OVCAR-4 ovarian, 20 µM in the test with RXF 393 renal and 24.3 µM in the test with TK-10 renal. For the same molecule, the TGI worked out at 60.8 µM with ACHN renal; 38.1 µM with HCC-2998 colon; 66.6 µM in the test with HOP-62 NSCLC; 48.8 µM in the test with HT29 colon; 38.5 µM in the test with LOX IMVI melanoma; 70.1 µM in the test with MDA-MB-435. Also, the TGI with NCI-H522 lung is 68.7 µM; with OVCAR-4 ovarian it was greater than 100 µM; with RXF 393 renal, 62.9 µM; in the test on TK-10 renal it was 67 µM.

As for `CCCCON(OC(=O)c1ccc2ccc3cccc4ccc1c2c34)C(C)=O`, the GI50 in the test on ACHN renal was 21.7 µM; with HCC-2998 colon, 38.5 µM; in the test on HOP-62 NSCLC, 24 µM; in the test with HT29 colon it was 25 µM; in the test on LOX IMVI melanoma, 16.9 µM; with MDA-MB-435, 22.3 µM. Moreover, the GI50 was 19.4 µM in the test on NCI-H522 lung, 23.5 µM in the test on OVCAR-4 ovarian, 19.7 µM in the test with RXF 393 renal and 30.5 µM in the test with TK-10 renal. In addition, the total growth inhibition concentration (TGI) in the test on ACHN renal was 51.6 µM; with HCC-2998 colon, greater than 100 µM; in the test on HOP-62 NSCLC it was 60.1 µM; in the test with HT29 colon, 74.9 µM; in the test on LOX IMVI melanoma, 33.1 µM; with MDA-MB-435, 50.4 µM. Further, the TGI in the test with NCI-H522 lung was 45.7 µM; with OVCAR-4 ovarian, 59.9 µM; with RXF 393 renal it was 50.2 µM; in the test on TK-10 renal it was 87.9 µM.

Take `O=C(CCC1OCCO1)Nc1cc(NCc2ccccc2)ccc1OCc1ccccc1`: the TGI in the test with ACHN renal is greater than 100 µM; in the test with HCC-2998 colon it was greater than 100 µM; in the test on HOP-62 NSCLC, greater than 100 µM; in the test with HT29 colon, 96.6 µM; with LOX IMVI melanoma, greater than 100 µM; with MDA-MB-435 it was 63.9 µM. Further, the TGI in the test with NCI-H522 lung is 78.6 µM; in the test with OVCAR-4 ovarian, greater than 100 µM; with RXF 393 renal, 77.8 µM; in the test on TK-10 renal it was 83.4 µM.

Take `COc1cccc(C#Cc2ccccc2C#CCCCCO)c1`: the GI50 in the test on ACHN renal is 11.8 µM; in the test on HCC-2998 colon, 5.95 µM; in the test with HOP-62 NSCLC it was 15.5 µM; with HT29 colon, 12.1 µM; in the test with LOX IMVI melanoma, 6.3 µM; in the test on MDA-MB-435 it was 1.92 µM. Moreover, the GI50 in the test on NCI-H522 lung is 13.3 µM; in the test on OVCAR-4 ovarian, 20.4 µM; in the test with RXF 393 renal, 1.78 µM; in the test with TK-10 renal it was 13.1 µM. The TGI in the test on ACHN renal amounted to 25.8 µM; with HCC-2998 colon, 19.4 µM; in the test on HOP-62 NSCLC it was 34.3 µM; with HT29 colon it was 27.9 µM; with LOX IMVI melanoma, 21.2 µM; in the test with MDA-MB-435, 8.2 µM. Further, the TGI in the test on NCI-H522 lung worked out at 30 µM; in the test on OVCAR-4 ovarian, 44.2 µM; with RXF 393 renal, 9.89 µM; in the test with TK-10 renal, 29.6 µM.

For the molecule `C=C1C(=O)OC2/C=C(\COC(C)=O)CCC(OC(C)=O)C3=CC(OC3=O)C12` (stereo not given), the TGI in the test on ACHN renal amounted to 9.13 µM; in the test with HCC-2998 colon it was 29.2 µM; in the test on HOP-62 NSCLC, 38.8 µM; in the test on HT29 colon it was 15.8 µM; with LOX IMVI melanoma it was 19 µM; in the test on MDA-MB-435, 32.9 µM. Moreover, the TGI in the test with NCI-H522 lung was found to be 1.14 µM; in the test on OVCAR-4 ovarian it was 52 µM; in the test on RXF 393 renal it was 3.28 µM; in the test on TK-10 renal it was 15.4 µM.

In the case of `C[C@H](O)C(=O)N1CCC(CCn2c(Sc3cc4c(cc3Br)OCO4)nc3c(N)ncnc32)CC1`, the GI50 in the test on ACHN renal was 0.84 µM; in the test with HCC-2998 colon, 0.867 µM; in the test on HOP-62 NSCLC, 1.73 µM; in the test on HT29 colon it was 0.432 µM; in the test with LOX IMVI melanoma, 0.596 µM; with MDA-MB-435, 0.577 µM. Besides, the GI50 with NCI-H522 lung is 0.791 µM; in the test on OVCAR-4 ovarian, greater than 20.1 µM; in the test on RXF 393 renal, 2.57 µM; with TK-10 renal, 1.3 µM. Besides, the TGI in the test on ACHN renal is greater than 100 µM; in the test with HCC-2998 colon it was greater than 43.3 µM; in the test on HOP-62 NSCLC, greater than 100 µM; in the test on HT29 colon, greater than 100 µM; in the test with LOX IMVI melanoma, 6.9 µM; with MDA-MB-435, greater than 100 µM. In addition, the TGI is greater than 52.2 µM in the test on NCI-H522 lung, greater than 100 µM in the test with OVCAR-4 ovarian, greater than 31.6 µM with RXF 393 renal and greater than 100 µM in the test with TK-10 renal.

For `CC(C)(C[C@H]1CN(S(=O)(=O)c2cccc(C(F)(F)F)c2)c2cc(-c3cc(F)cc(OC(F)F)c3)ccc2O1)C(=O)O`, the GI50 in the test on ACHN renal was 11.1 µM; in the test with HCC-2998 colon it was 10.1 µM; in the test with HOP-62 NSCLC it was 6.65 µM; in the test with HT29 colon it was 4.01 µM; with LOX IMVI melanoma, 6.54 µM; in the test with MDA-MB-435 it was 2.44 µM. In addition, the GI50 is 2.5 µM in the test with NCI-H522 lung, 13.2 µM in the test on OVCAR-4 ovarian, 8.43 µM in the test with RXF 393 renal and 9.07 µM in the test on TK-10 renal. The TGI with ACHN renal is 23.1 µM; in the test on HCC-2998 colon it was 24.4 µM; in the test with HOP-62 NSCLC it was 23.8 µM; in the test on HT29 colon, 15.6 µM; in the test with LOX IMVI melanoma, 22.5 µM; in the test with MDA-MB-435, 7.58 µM. Besides, the TGI is 10.7 µM in the test on NCI-H522 lung, 41.7 µM in the test with OVCAR-4 ovarian, 24.2 µM in the test on RXF 393 renal and 27.6 µM in the test on TK-10 renal.
